Test systems include UO-31 renal; NCI-H460 lung; COLO 205 colon; HOP-62 NSCLC; HOP-92 NSCLC; 786-0 renal; SF-268 CNS; RPMI-8226 leukemia; SK-MEL-28 melanoma; SK-OV-3 ovarian.
Assay in all cases: growth of human tumour cells (NCI), 48 h

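Values below derive from 48-hour exposures of cells grown in 96-well plates, with endpoints linearly interpolated between the two concentrations bracketing the appropriate inhibition level. GI50 is the concentration that inhibits growth by half. At the TGI there is no net growth.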

`COC(=O)C(Cc1nc2ccc(Cl)cc2[nH]c1=O)/C(=N\N)C(=O)Nc1cc(C)c(Cl)cc1S(=O)(=O)O` (stereo not given): the TGI in the assay on UO-31 renal, in the assay on NCI-H460 lung, with COLO 205 colon, in the assay on HOP-62 NSCLC, in the assay on HOP-92 NSCLC and with 786-0 renal was greater than 100 µM each time. In addition, the TGI in the assay with SF-268 CNS, with RPMI-8226 leukemia, in the assay with SK-MEL-28 melanoma and in the assay on SK-OV-3 ovarian was greater than 100 µM each time.

For `N#C/C1=C(\N)CCSSSC1`, the TGI is greater than 100 µM in the assay with UO-31 renal; 51.2 µM in the assay on NCI-H460 lung; greater than 100 µM in the assay with COLO 205 colon; 89.6 µM with HOP-62 NSCLC; 95.6 µM with HOP-92 NSCLC; greater than 100 µM in the assay on 786-0 renal. Moreover, the TGI with SF-268 CNS, in the assay with RPMI-8226 leukemia, with SK-MEL-28 melanoma and in the assay on SK-OV-3 ovarian was greater than 100 µM each time.

As for `O=C(CC1(O)C(=O)N(Cc2ccccc2)c2ccc(F)cc21)c1ccc(C(=O)NCC2CCC3(CC2)OOC2(CCCCC2)OO3)cc1` (stereo not given), the GI50 in the assay on UO-31 renal is 0.18 µM; in the assay on NCI-H460 lung, 0.21 µM; in the assay with COLO 205 colon, 0.728 µM; in the assay on HOP-62 NSCLC, 0.179 µM; with HOP-92 NSCLC, 0.186 µM; with 786-0 renal, 0.18 µM. Also, the GI50 with SF-268 CNS was 1.31 µM; in the assay with RPMI-8226 leukemia, 0.365 µM; with SK-MEL-28 melanoma it was 4.38 µM; in the assay with SK-OV-3 ovarian, 2.9 µM. In addition, the TGI in the assay on UO-31 renal turned out to be 0.352 µM; with NCI-H460 lung it was 0.487 µM; in the assay with COLO 205 colon, 2.02 µM; with HOP-62 NSCLC, 0.382 µM; in the assay with HOP-92 NSCLC it was 0.378 µM; with 786-0 renal, 0.344 µM. In addition, the TGI with SF-268 CNS is 3.22 µM; with RPMI-8226 leukemia it was 1.92 µM; in the assay with SK-MEL-28 melanoma it was greater than 84.7 µM; in the assay on SK-OV-3 ovarian, greater than 24 µM.

As to `COc1ccc(-c2nc3ccc(-c4nc5ccc(N6CCN(c7ccccc7)CC6)cc5[nH]4)cc3[nH]2)cc1OC`, the GI50 in the assay on UO-31 renal is 51.4 µM; with NCI-H460 lung, 1.73 µM; in the assay with COLO 205 colon, 0.77 µM; in the assay with HOP-62 NSCLC, 2.04 µM; in the assay with HOP-92 NSCLC, 1.28 µM; in the assay on 786-0 renal it was 1.62 µM. The GI50 with SF-268 CNS is 2.12 µM; with RPMI-8226 leukemia, 0.19 µM; with SK-MEL-28 melanoma, 1.66 µM; in the assay on SK-OV-3 ovarian, 5.34 µM. Further, the TGI in the assay on UO-31 renal was greater than 100 µM; in the assay with NCI-H460 lung, 3.66 µM; in the assay with COLO 205 colon it was 2.81 µM; in the assay on HOP-62 NSCLC, 6.58 µM; in the assay with HOP-92 NSCLC, 4 µM; in the assay on 786-0 renal it was 3.12 µM. The TGI is 4.68 µM with SF-268 CNS, 2.3 µM in the assay with RPMI-8226 leukemia, 3.24 µM in the assay with SK-MEL-28 melanoma and 18.6 µM with SK-OV-3 ovarian.

On to `O=C(N[C@@H](c1ccc(Cl)c(Cl)c1)C1CNC1)c1ccc2cnccc2c1`, for which the GI50 is 0.543 µM in the assay on UO-31 renal; 0.214 µM with NCI-H460 lung; 0.194 µM with COLO 205 colon; 0.34 µM in the assay with HOP-62 NSCLC; 0.0444 µM in the assay on HOP-92 NSCLC; 0.0676 µM in the assay on 786-0 renal. The GI50 in the assay on SF-268 CNS was 0.924 µM; in the assay with RPMI-8226 leukemia, 1.56 µM; in the assay with SK-MEL-28 melanoma, 0.301 µM; with SK-OV-3 ovarian, 0.239 µM. In addition, the TGI with UO-31 renal amounted to 10 µM; in the assay on NCI-H460 lung, 11 µM; in the assay with COLO 205 colon it was 1.29 µM; with HOP-62 NSCLC it was 11.5 µM; with HOP-92 NSCLC, 3.34 µM; in the assay with 786-0 renal it was 2.34 µM. Also, the TGI in the assay on SF-268 CNS stood at 3.16 µM; in the assay on RPMI-8226 leukemia, 8.87 µM; with SK-MEL-28 melanoma, 3.43 µM; in the assay with SK-OV-3 ovarian it was 6.86 µM.

In the case of `COc1ccc(NC(=O)/C(Cc2cc(=O)oc3cc(O)ccc23)=N\NC(C)(C)C)c(OC)c1`, the TGI in the assay on UO-31 renal, in the assay on NCI-H460 lung, with COLO 205 colon, in the assay on HOP-62 NSCLC, in the assay with HOP-92 NSCLC and in the assay with 786-0 renal was greater than 100 µM in each case. The TGI in the assay with SF-268 CNS, in the assay on RPMI-8226 leukemia, in the assay with SK-MEL-28 melanoma and in the assay on SK-OV-3 ovarian was greater than 100 µM in each case.

Regarding `COc1cccc2c1C(=O)c1c(O)c3c(c(O)c1C2=O)C[C@](O)(C(=O)CO)C[C@H]3O[C@@H]1C[C@@H](NC(=O)CCCCCN(C)C2(c3ccc(F)cc3)CC3CCC2C3)[C@H](O)[C@@H](C)O1` (stereo not given in full), the GI50 in the assay on UO-31 renal was 6.1 µM; in the assay on NCI-H460 lung it was 0.555 µM; with COLO 205 colon, 0.728 µM; in the assay on HOP-62 NSCLC, 2.03 µM; in the assay on HOP-92 NSCLC it was 5.36 µM; with 786-0 renal, 0.82 µM. Besides, the GI50 with SF-268 CNS is 5.38 µM; in the assay on RPMI-8226 leukemia, 0.899 µM; with SK-MEL-28 melanoma it was 7.25 µM; in the assay with SK-OV-3 ovarian, 7.46 µM. For the same compound, the TGI in the assay with UO-31 renal stood at 12.5 µM; with NCI-H460 lung, 1.37 µM; with COLO 205 colon it was 1.65 µM; in the assay on HOP-62 NSCLC, 10 µM; in the assay on HOP-92 NSCLC it was 12.5 µM; in the assay with 786-0 renal it was 1.61 µM. Further, the TGI in the assay with SF-268 CNS came to 14.9 µM; in the assay on RPMI-8226 leukemia, 2.25 µM; in the assay on SK-MEL-28 melanoma it was 15.7 µM; with SK-OV-3 ovarian, 14.7 µM.

`C=C(C)[C@@H]1CC[C@]2(C)[C@H](CC=C3[C@@H]4CC(C)(C)CC[C@]4(C(N)=O)CC[C@]32C)[C@@]1(C)CCC#N`: the GI50 in the assay with UO-31 renal was 2.55 µM; in the assay with NCI-H460 lung, 2.93 µM; in the assay with COLO 205 colon, 2.6 µM; in the assay with HOP-62 NSCLC it was 7.44 µM; in the assay on HOP-92 NSCLC, 2.37 µM; in the assay with 786-0 renal, 2 µM. Further, the GI50 with SF-268 CNS is 5.28 µM; with RPMI-8226 leukemia, 1.94 µM; in the assay on SK-MEL-28 melanoma it was 4.17 µM; in the assay on SK-OV-3 ovarian, 4.62 µM. Besides, the TGI in the assay with UO-31 renal was 7.52 µM; in the assay on NCI-H460 lung, 8.62 µM; with COLO 205 colon, 7.36 µM; with HOP-62 NSCLC it was greater than 100 µM; with HOP-92 NSCLC it was 6.62 µM; in the assay on 786-0 renal, 4.12 µM. For the same compound, the TGI in the assay with SF-268 CNS was greater than 100 µM; in the assay on RPMI-8226 leukemia, 5.54 µM; in the assay on SK-MEL-28 melanoma, greater than 100 µM; in the assay with SK-OV-3 ovarian, greater than 100 µM.

(Values after PubChem BioAssay (NCI).)
